Measured values: patent US6015805A, “17β-nitro-11β-arylisteroids and their derivatives having agonist or antagonist hormonal properties” (Research Triangle Research North Carolina, priority 1999, dated 2000)

Tests used:
[1] = molecular target: T1, progestin receptor (rPR) (Oryctolagus cuniculus, UniProt P06186); assay: Receptor binding (rabbit), progestin receptor; conditions: for Ratio PR/GR: ratio of rPR to rGR relative affinities; for Relative Binding Affinity, rPR, Relative Affinity (Progesterone): relative to progesterone = 100, rabbit progestin receptor
T1 construct: hormone receptors for progestins and glucocorticoids from rabbits; from tissue; host or cells: rabbit
T1 sequence (P06186 1-930): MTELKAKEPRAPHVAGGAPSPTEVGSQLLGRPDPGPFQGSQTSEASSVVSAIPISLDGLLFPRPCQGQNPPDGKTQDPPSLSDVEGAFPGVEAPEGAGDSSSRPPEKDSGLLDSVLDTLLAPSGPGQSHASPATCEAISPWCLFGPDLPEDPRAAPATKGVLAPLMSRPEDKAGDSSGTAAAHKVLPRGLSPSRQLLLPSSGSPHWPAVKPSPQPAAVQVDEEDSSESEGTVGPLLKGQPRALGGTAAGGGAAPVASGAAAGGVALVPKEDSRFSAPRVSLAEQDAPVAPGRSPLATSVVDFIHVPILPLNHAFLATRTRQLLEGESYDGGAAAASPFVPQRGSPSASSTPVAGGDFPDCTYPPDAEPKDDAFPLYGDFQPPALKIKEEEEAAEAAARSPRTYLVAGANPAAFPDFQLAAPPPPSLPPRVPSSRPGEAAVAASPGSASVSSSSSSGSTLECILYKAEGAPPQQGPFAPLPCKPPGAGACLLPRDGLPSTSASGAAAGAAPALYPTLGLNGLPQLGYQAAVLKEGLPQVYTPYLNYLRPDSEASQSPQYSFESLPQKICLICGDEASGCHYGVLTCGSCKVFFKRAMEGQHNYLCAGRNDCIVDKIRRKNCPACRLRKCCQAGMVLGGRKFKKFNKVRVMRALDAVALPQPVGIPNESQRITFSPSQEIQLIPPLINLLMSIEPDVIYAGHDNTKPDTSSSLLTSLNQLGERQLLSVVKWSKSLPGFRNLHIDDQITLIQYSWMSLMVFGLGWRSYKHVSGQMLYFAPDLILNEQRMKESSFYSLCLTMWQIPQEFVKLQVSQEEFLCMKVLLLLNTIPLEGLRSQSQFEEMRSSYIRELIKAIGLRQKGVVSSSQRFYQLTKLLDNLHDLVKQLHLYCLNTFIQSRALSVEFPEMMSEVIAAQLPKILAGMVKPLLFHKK

[2] = system: rabbits; assay: McGinty assay (progestational activity, test compound alone); type: in vivo, rabbit; parameters: key: McPhail scoring scale for progestational endometrial response
Protocol: Progestational activity and antiprogestational activity were determined in rabbits by means of the McGinty test (test compound alone, procedure of McGinty et al., Endocrinology, 24: 829-832 (1939)) or anti-McGinty test (test compound plus progesterone, procedure of Tamara et al., Jpn. J. Fertil Steril 24: 48-81 (1979)). Results were scored according to McPhail (McPhail, J Physiol., 83: 146 (1934)). These are standard procedures known to those skilled in the art. The results of these assays are shown in Tables 4 (agonist activity) and 5 (antagonist activity). […] Physiol, 83: 146 (1934)).

[3] = system: human T-47D breast cells; assay: T47D cell proliferation, agonist format; type: cell-based; conditions: maximum % stimulation at any dose, 0.01 to 10 nM
Protocol: Human T-47D breast cells grown in nutrient media were incubated with the standard progestin R5020 alone or with R5020 plus test compound and then assessed by standard procedures for proliferation using incorporation of [^3 H]-thymidine as the measurement. […] The maximum % inhibition (a measure of the efficacy of the compounds) is also given. In the agonist format of this assay the compounds were tested at concentrations ranging from 0.01 to 10 nM and the maximum % stimulation at any dose is listed in Table 3.

SMILES: CC1=[N+]([O-])C2(CC1)CCC1C3CCC4=CC(=O)CCC4=C3C(c3ccc(N(C)C)cc3)CC12C (stereo not drawn) [II 4-Me2 N H O H -- CH3, 3',4'-dihydro-11β-(4-(N,N-dimethylamino)phenyl)-5'-methyl-1'-oxo-spiro[estra-4,9-dien-17β,2'(2'H)-pyrrole]-3-one]
- separation of progestin and glucocorticoid receptor affinity ([1]; in words): excellent separation of progestin and glucocorticoid receptor affinity
- Ratio PR/GR [1]: 78.5
- Relative Binding Affinity, rPR, Relative Affinity (Progesterone) [1]: 157
- McPhail Index, McGinty Assay (Agonist) ([2]; dose 0.3 micrograms): 0 ± 0
- McPhail Index, McGinty Assay (Agonist) ([2]; dose 3 micrograms): 0 ± 0
- McPhail Index, McGinty Assay (Agonist) ([2]; dose 30 micrograms): 0 ± 0

SMILES: CN(C)c1ccc([C@H]2C[C@@]3(C)[C@@H](CC[C@]3(CCCO)[N+](=O)[O-])[C@@H]3CCC4=CC(=O)CCC4=C32)cc1 [I 4-Me2 N H O H --(CH2)3 OH, 11β-[4-(N,N-Dimethylamino)phenyl]-17α-(3-hydroxypropyl)-17β-nitroestra-4,9-dien-3-one]
- Ratio PR/GR [1]: 2.3
- Relative Binding Affinity, rPR, Relative Affinity (Progesterone) [1]: 170
- Emax [3]: 33%
- McPhail Index, McGinty Assay (Agonist) ([2]; dose 0.3 micrograms): 0 ± 0
- McPhail Index, McGinty Assay (Agonist) ([2]; dose 3 micrograms): 0 ± 0
- McPhail Index, McGinty Assay (Agonist) ([2]; dose 30 micrograms): 0.03 ± 0.057

SMILES: CC(=O)c1ccc([C@H]2C[C@@]3(C)[C@@H](CC[C@]3(CCCO)[N+](=O)[O-])[C@@H]3CCC4=CC(=O)CCC4=C32)cc1 [I 4-CH3 CO H O H --(CH2)3 OH, 11β-(4-Acetylphenyl)-17α-(3-hydroxypropyl)-17β-nitroestra-4,9-dien-3-one]
- Ratio PR/GR [1]: 17.7
- Relative Binding Affinity, rPR, Relative Affinity (Progesterone) [1]: 53
- Emax [3]: 41%
- McPhail Index, McGinty Assay (Agonist) ([2]; dose 0.3 micrograms): 0 ± 0
- McPhail Index, McGinty Assay (Agonist) ([2]; dose 3 micrograms): 0 ± 0
- McPhail Index, McGinty Assay (Agonist) ([2]; dose 30 micrograms): 0 ± 0

SMILES: CC(=O)c1ccc([C@H]2C[C@@]3(C)[C@@H](CC[C@]3(/C=C/CO)[N+](=O)[O-])[C@@H]3CCC4=CC(=O)CCC4=C32)cc1 [I 4-CH3 CO H O H CH=CHCH2 OH, 11β-(4-acetylphenyl)-17α-(E-3-hydroxy-1-propenyl)-17β-nitroestra-4,9-dien-3-one]
- Ratio PR/GR [1]: 6.5
- Relative Binding Affinity, rPR, Relative Affinity (Progesterone) [1]: 26
- Emax [3]: 52%
- McPhail Index, McGinty Assay (Agonist) ([2]; dose 0.3 micrograms): 0 ± 0
- McPhail Index, McGinty Assay (Agonist) ([2]; dose 3 micrograms): 0 ± 0
- McPhail Index, McGinty Assay (Agonist) ([2]; dose 30 micrograms): 0 ± 0

SMILES: CC#C[C@]1([N+](=O)[O-])CC[C@H]2[C@@H]3CCC4=CC(=O)CCC4=C3[C@@H](c3ccc(C(C)=O)cc3)C[C@@]21C [I 4-CH3 CO H O H --CC--CH3, 11β-(4-Acetylphenyl)-17β-nitro-17α-(1-propynyl)estra-4,9-dien-3-one]
- Ratio PR/GR [1]: 7.7
- Relative Binding Affinity, rPR, Relative Affinity (Progesterone) [1]: 153
- Emax [3]: 35%
- McPhail Index, McGinty Assay (Agonist) ([2]; dose 0.3 micrograms): 0.13 ± 0.12
- McPhail Index, McGinty Assay (Agonist) ([2]; dose 3 micrograms): 1.33 ± 0.35
- McPhail Index, McGinty Assay (Agonist) ([2]; dose 30 micrograms): 0.97 ± 0.75
